From article PMC7150991 (Viruses, 2020)
Values joined by “and” are separate entries in the source; they are usually repeats but may differ in a detail not shown here. Identical values can stand only once. Like-named read-outs stand apart in the source and are kept apart here.

Experiments:
influenza A virus [1] = test: microbe, parasite or virus in culture; type: cell-based; conditions: A549, 48 h
influenza A virus [2] = test: microbe, parasite or virus in culture; type: cell-based; conditions: MDCK, 48 h
influenza A virus [3] = test: microbe, parasite or virus in culture; type: cell-based; conditions: 48 h
influenza A virus [4] = test: microbe, parasite or virus in culture; type: cell-based; conditions: 72 h
A549 cells = test: XTT cell viability assay, A549 cells; type: cell-based, human; conditions: 48 h
MDCK cells = test: XTT cell viability assay, MDCK cells; type: cell-based, canine; conditions: 48 h
LET1 cells = test: XTT cell viability assay, LET1 cells; type: cell-based, mouse; conditions: 48 h
HAE cultures = test: Cytotoxicity in HAE cultures; type: cell-based, human; conditions: up to 160 µM (0.054 µg/mL)
ERK1 = test: cells; type: cell-based, human
influenza A virus NP = type: cell-based, human
influenza virus [5] = conditions: MDCK cells, ref Wu et al. [20], cited from earlier work
influenza virus [6] = conditions: cited from earlier work
H1N1 virus = conditions: MDCK cells; ref Cecil et al. [19]; cited from earlier work

COc1ccc2cc3[n+](cc2c1OC)CCc1cc2c(cc1-3)OCO2 [BBR, Berberine chloride hydrate]
IC50 (influenza A virus [1]): 17 µM and 6 µg/mL | IC50 (influenza A virus [2]): 52 µM and 17 µg/mL | IC50 (influenza A virus [3]): 4 µM and 1 µg/mL | IC50 (influenza A virus [4]): 16 µM and 5 µg/mL | TC50 (A549 cells): 107 µM | TC50 (A549 cells; value in brackets): 0.036 µg/mL | TC50 (MDCK cells): 1035 µM | TC50 (MDCK cells; value in brackets): 0.350 µg/mL | TC50 (LET1 cells): 521 µM | TC50 (LET1 cells; value in brackets): 0.176 µg/mL | cytotoxicity at tested concentrations (HAE cultures): did not observe cytotoxicity | inhibition at 20 µM (ERK1; Homo sapiens, A549, 12 h, read-out: inhibition of ERK1 activation (phospho-ERK1, Western blot)): 45% | accumulation of influenza A virus NP in nuclear fractions (influenza A virus NP): did not cause significant accumulation | decrease of NP signal in cytoplasmatic fraction (influenza A virus NP): about 40 % inhibition | increase of viral NP in nuclear fractions compared to untreated infection (influenza A virus NP): ~ 3 fold | IC50 (influenza virus [5]; conversion of 0.025 µg/mL, read-out: IC50): ~67 µM | IC50 (influenza virus [5]): 0.025 µg/mL | mice mortality (influenza virus [6]; mice models, reduced from 90%): 55% | virus titers in the lungs (influenza virus [6]; mice, day 2 post-infection): decreased | inhibition of virus replication (H1N1 virus): No inhibition

N#CC(=C(/N)Sc1ccccc1N)/C(C#N)=C(/N)Sc1ccccc1N [U0126, reference compound]
inhibition of ERK1 activation (phospho-ERK1, Western blot) (ERK1): 76 % inhibition | decrease of NP signal in cytoplasmatic fraction (influenza A virus NP): about 40 % inhibition | increase of viral NP in nuclear fractions compared to untreated infection (influenza A virus NP): ~ 3 fold
